Measured values: patent US5281604A, “Angiotensin II receptor blocking 2,3,6-substituted quinazolinones” (American Cyanamid Company, priority 1993, dated 1994)
“And” between values parts separate entries of the source, which are not always exact repeats. Equal entries are not always repeated.

Tested on: ANGIOTENSIN II (AII) VASOPRESSOR RESPONSE
Test: AII Challenge: blockade of the angiotensin II vasopressor response in conscious spontaneously hypertensive rats
Type: in vivo, rat (Male Okamoto-Aoki SHR)
Description: By administering a compound of this invention to a rat, and then challenging with angiotensin II, a blockage of the vasopressor response is realized.
Conscious Male Okamoto-Aoki SHR, 16-20 weeks old, weighing approximately 330 g are purchased from Charles River Labs (Wilmington, Mass.). Conscious rats are restrained in a supine position with elastic tape. The area at the base of the tail is locally anesthetized by subcutaneous infiltration with 2% procaine. The ventral caudal artery and vein are isolated, and a cannula made of polyethylene (PE) 10-20 tubing (fused together by heat) is passed into the lower abdominal aorta and vena cava, respectively. The cannula is secured, heparinized (1,000 I.U./ml), sealed and the wound is closed. The animals are placed in plastic restraining cages in an upright position. The cannula is attached to a Statham P23Db pressure transducer, and pulsatile blood pressure is recorded to 10-15 minutes with a Gould Brush recorder. (Chan et al., (Drug Development Res., 18:75-94, 1989).
Angiotensin II (human sequence, Sigma Chem. Co., St. Louis, Mo.) of 0.05 and 0.1 ug/kg i.v. is injected into all rats (predosing response). Then a test compound, vehicle or a known angiotensin II antagonist is administered i.v., i.p. or orally to each set of rats. The two doses of angiotensin II are given to each rat again at 30, 60, 90, 120, 180, 240 and 300 minutes post dosing the compound or vehicle. The vasopressor response of angiotensin II is measured for the increase in systolic blood pressure in mmHg. The percentage of antagonism or blockade of the vasopressor response of angiotensin II by a compound is calculated using the vasopressor response (increase in systolic blood pressure) of angiotensin II of each rat predosing the compound as 100%. A compound is considered active if at 30 mg/kg i.v. it antagonized at least 50% of the response.

[1] = 3 mg/kg i.v., AII 0.05 mcg/kg IV, 30 min post dose
[2] = 3 mg/kg i.v., AII 0.05 mcg/kg IV, 60 min post dose
[3] = 3 mg/kg i.v., AII 0.05 mcg/kg IV, 90 min post dose
[4] = 3 mg/kg i.v., AII 0.05 mcg/kg IV, 120 min post dose
[5] = 3 mg/kg i.v., AII 0.05 mcg/kg IV, 180 min post dose
[6] = 3 mg/kg i.v., AII 0.05 mcg/kg IV, 240 min post dose
[7] = 3 mg/kg i.v., AII 0.05 mcg/kg IV, 300 min post dose
[8] = 3 mg/kg i.v., AII 0.1 mcg/kg IV, 30 min post dose
[9] = 3 mg/kg i.v., AII 0.1 mcg/kg IV, 60 min post dose
[10] = 3 mg/kg i.v., AII 0.1 mcg/kg IV, 90 min post dose
[11] = 3 mg/kg i.v., AII 0.1 mcg/kg IV, 120 min post dose
[12] = 3 mg/kg i.v., AII 0.1 mcg/kg IV, 180 min post dose
[13] = 3 mg/kg i.v., AII 0.1 mcg/kg IV, 240 min post dose
[14] = 3 mg/kg i.v., AII 0.1 mcg/kg IV, 300 min post dose
[15] = 3 mg/kg p.o., AII 0.05 mcg/kg IV, 30 min post dose
[16] = 3 mg/kg p.o., AII 0.05 mcg/kg IV, 60 min post dose
[17] = 3 mg/kg p.o., AII 0.05 mcg/kg IV, 90 min post dose
[18] = 3 mg/kg p.o., AII 0.05 mcg/kg IV, 120 min post dose
[19] = 3 mg/kg p.o., AII 0.05 mcg/kg IV, 180 min post dose
[20] = 3 mg/kg p.o., AII 0.05 mcg/kg IV, 240 min post dose
[21] = 3 mg/kg p.o., AII 0.1 mcg/kg IV, 30 min post dose
[22] = 3 mg/kg p.o., AII 0.1 mcg/kg IV, 60 min post dose
[23] = 3 mg/kg p.o., AII 0.1 mcg/kg IV, 90 min post dose
[24] = 3 mg/kg p.o., AII 0.1 mcg/kg IV, 120 min post dose
[25] = 3 mg/kg p.o., AII 0.1 mcg/kg IV, 180 min post dose
[26] = 3 mg/kg p.o., AII 0.1 mcg/kg IV, 240 min post dose

## CCCCc1nc2ccc([C@H]3OC[C@H]4[C@@H]3ON3[C@@H]4CCC3(C)C)cc2c(=O)n1Cc1ccc(-c2ccccc2-c2nnn[nH]2)cc1 (relative stereo) [Example 7, (1α, 3aα, 8aβ, 8bα)-2-Butyl-6-(octahydro-6,6-dimethylfuro[3,4-d]pyrrolo[1,2-b]isoxazol-1-yl)-3-[[2'-(1H-tetrazol-5-yl)[1,1'-biphenyl]-4-yl]methyl]-4 (3H)-quinazolinone]
[1]
  % Inhibition: 91%
  Average Change: 4.5 mmHg
  Control Before AII (single rat): 245 mmHg and 214 mmHg
  Response After AII (single rat): 245 mmHg and 223 mmHg
  Response Change (single rat): 0 mmHg and 9 mmHg
[2]
  % Inhibition: 84%
  Average Change: 7.5 mmHg
  Control Before AII (single rat): 240 mmHg and 225 mmHg
  Response After AII (single rat): 255 mmHg and 225 mmHg
  Response Change (single rat): 15 mmHg and 0 mmHg
[3]
  % Inhibition: 89%
  Average Change: 5 mmHg
  Control Before AII (single rat): 235 mmHg
  Response After AII (single rat): 240 mmHg
  Response Change (single rat): 5 mmHg
[4]
  % Inhibition: 84%
  Average Change: 7.5 mmHg
  Control Before AII (single rat): 225 mmHg and 220 mmHg
  Response After AII (single rat): 235 mmHg and 225 mmHg
  Response Change (single rat): 10 mmHg and 5 mmHg
[5]
  % Inhibition: 79%
  Average Change: 10 mmHg
  Control Before AII (single rat): 225 mmHg and 215 mmHg
  Response After AII (single rat): 235 mmHg and 225 mmHg
  Response Change (single rat): 10 mmHg
[6]
  % Inhibition: 63%
  Average Change: 17.5 mmHg
  Control Before AII (single rat): 225 mmHg and 215 mmHg
  Response After AII (single rat): 235 mmHg and 240 mmHg
  Response Change (single rat): 10 mmHg and 25 mmHg
[7]
  % Inhibition: 74%
  Average Change: 12.5 mmHg
  Control Before AII (single rat): 235 mmHg and 210 mmHg
  Response After AII (single rat): 242 mmHg and 228 mmHg
  Response Change (single rat): 7 mmHg and 18 mmHg
[8]
  % Inhibition: 90%
  Average Change: 5 mmHg
  Control Before AII (single rat): 255 mmHg and 220 mmHg
  Response After AII (single rat): 260 mmHg and 225 mmHg
  Response Change (single rat): 5 mmHg
[9]
  % Inhibition: 86%
  Average Change: 7.5 mmHg
  Control Before AII (single rat): 250 mmHg and 215 mmHg
  Response After AII (single rat): 255 mmHg and 225 mmHg
  Response Change (single rat): 5 mmHg and 10 mmHg
[10]
  % Inhibition: 83%
  Average Change: 9 mmHg
  Control Before AII (single rat): 235 mmHg and 225 mmHg
  Response After AII (single rat): 238 mmHg and 240 mmHg
  Response Change (single rat): 3 mmHg and 15 mmHg
[11]
  % Inhibition: 86%
  Average Change: 7.5 mmHg
  Control Before AII (single rat): 235 mmHg and 215 mmHg
  Response After AII (single rat): 240 mmHg and 225 mmHg
  Response Change (single rat): 5 mmHg and 10 mmHg
[12]
  % Inhibition: 72%
  Average Change: 14.5 mmHg
  Control Before AII (single rat): 235 mmHg and 205 mmHg
  Response After AII (single rat): 245 mmHg and 224 mmHg
  Response Change (single rat): 10 mmHg and 19 mmHg
[13]
  % Inhibition: 81%
  Average Change: 10 mmHg
  Control Before AII (single rat): 235 mmHg and 225 mmHg
  Response After AII (single rat): 245 mmHg and 235 mmHg
  Response Change (single rat): 10 mmHg
[14]
  % Inhibition: 57%
  Average Change: 22.5 mmHg
  Control Before AII (single rat): 230 mmHg and 215 mmHg
  Response After AII (single rat): 250 mmHg and 240 mmHg
  Response Change (single rat): 20 mmHg and 25 mmHg
[15]
  % Inhibition: 23%
  Average Change: 29 mmHg
  Control Before AII (single rat): 215 mmHg and 205 mmHg
  Response After AII (single rat): 248 mmHg and 230 mmHg
  Response Change (single rat): 33 mmHg and 25 mmHg
[16]
  % Inhibition: 27%
  Average Change: 27.5 mmHg
  Control Before AII (single rat): 230 mmHg and 195 mmHg
  Response After AII (single rat): 255 mmHg and 225 mmHg
  Response Change (single rat): 25 mmHg and 30 mmHg
[17]
  % Inhibition: 31%
  Average Change: 26 mmHg
  Control Before AII (single rat): 210 mmHg and 193 mmHg
  Response After AII (single rat): 245 mmHg and 210 mmHg
  Response Change (single rat): 35 mmHg and 17 mmHg
[18]
  % Inhibition: 27%
  Average Change: 27.5 mmHg
  Control Before AII (single rat): 210 mmHg and 195 mmHg
  Response After AII (single rat): 245 mmHg and 215 mmHg
  Response Change (single rat): 35 mmHg and 20 mmHg
[19]
  % Inhibition: 0%
  Average Change: 37.5 mmHg
  Control Before AII (single rat): 210 mmHg and 190 mmHg
  Response After AII (single rat): 255 mmHg and 220 mmHg
  Response Change (single rat): 45 mmHg and 30 mmHg
[20]
  % Inhibition: 0%
  Average Change: 37.5 mmHg
  Control Before AII (single rat): 210 mmHg and 190 mmHg
  Response After AII (single rat): 260 mmHg and 215 mmHg
  Response Change (single rat): 50 mmHg and 25 mmHg
[21]
  % Inhibition: 6%
  Average Change: 40 mmHg
  Control Before AII (single rat): 215 mmHg and 200 mmHg
  Response After AII (single rat): 260 mmHg and 235 mmHg
  Response Change (single rat): 45 mmHg and 35 mmHg
[22]
  % Inhibition: 6%
  Average Change: 40 mmHg
  Control Before AII (single rat): 215 mmHg and 195 mmHg
  Response After AII (single rat): 255 mmHg and 235 mmHg
  Response Change (single rat): 40 mmHg
[23]
  % Inhibition: 18%
  Average Change: 35 mmHg
  Control Before AII (single rat): 215 mmHg and 195 mmHg
  Response After AII (single rat): 260 mmHg and 220 mmHg
  Response Change (single rat): 45 mmHg and 25 mmHg
[24]
  % Inhibition: 24%
  Average Change: 32.5 mmHg
  Control Before AII (single rat): 205 mmHg and 190 mmHg
  Response After AII (single rat): 240 mmHg and 220 mmHg
  Response Change (single rat): 35 mmHg and 30 mmHg
[25]
  % Inhibition: 12%
  Average Change: 37.5 mmHg
  Control Before AII (single rat): 215 mmHg and 180 mmHg
  Response After AII (single rat): 260 mmHg and 210 mmHg
  Response Change (single rat): 45 mmHg and 30 mmHg
[26]
  % Inhibition: 9%
  Average Change: 38.5 mmHg
  Control Before AII (single rat): 213 mmHg and 185 mmHg
  Response After AII (single rat): 265 mmHg and 210 mmHg
  Response Change (single rat): 52 mmHg and 25 mmHg
